# Source: patent US6057450A, “Derivatives of pyroglutaminic acid preparation process and applications” (Totiam, S.L., priority 1994, dated 2000)
# What was measured:
# [1] = system: circulating peripheral blood leukocytes; assay: in vivo leukocyte kinetics / response in asymptomatic rabbits; design: species or system New Zealand's albino, giant rabbits; conditions: progressive i.v. doses
# From the text: (§1) The pharmacodynamic study to assess the leuko-lymphocyte kinetics has been carried out in New Zealand's albino, giant, female, adult, asymptomatic (healthy) rabbits. The blood samples with EDTA (ethylene-diamino-tetraAcetic acid), non-coagulable, for the periodical weekly controls, have been obtained by aseptic puncture from the marginal vein of the outer ear. The count and the differential cytologic survey of the white series has been routinely performed in a "Coulter" (Coulter Cientifica, S.A., STKs model) differential analyzer, within the two hours following the extraction.
# Hereinafter, there is a summary of the most significant results of the preclinical protocols which include different experimental conditions, different BRM-BLAS products and doses which vary in vary of their concentration of the product, frequency and number.
# The leuko-lymphocyte mean values of the group run parallelly during the study, in general above the respective basal values before the treatment to which they return in the last two assessments. They reach the higher ones 7, 16 and 20 days after the first, second and third dose, FIG. 12, FIG. 13 and Table VIII (assessments: 3, 8 and 13).
# A total number of 225 individual assessments and 45 of the group assessments have been performed, grouped in four evolutive periods moments. The "first" one includes the 40 individual assessments (8 of the group) after the two first doses, days 0 to 43rd; the "second", the 85 (17 of the group) after the third, fourth and fifth doses, days 46th to 147th; the "third", the first 50 (10 of the group) after the sixth, days 153rd to 213th, and the "fourth", the last 50 (10 of the group), days 220th to 282nd, respectively. The assessment of the group prior to the third dose (43rd day), the lymphocyte mean of which has been the lowest during the survey, has been taken as the natural reference baseline for the comparative analysis of punctual and grouped data.
# This trail is subsequent to the protocol previously described and corresponds to the "fifth" moment of the global study, FIG. 14 and FIG. 15.
# After the subcutaneous administration of a dose of 30 u/Kg (2.1 mcg/Kg) of the BRM-BLAS 278 (Cl) compounds 137 days after the sixth dose of the BRM-BLAS 320 (Ac) compounds, in the presence of high figures of the lymphocyte mean of the group, at the "fourth" moment, such figures were specifically exceeded by the 4th and 5th punctual weekly assessments of the "fifth" moment, 24th (184%) and 31st (180%) days, respectively, FIG. 14. Globally, 28% of the assessment exceed basal values by one or two standard deviations; 57% in three, and the difference is statistically in all of them. The resulting mean of the data gathered for the "fifth" moment with a 158% of the basal values, exceed those of the four previous moments, and the difference is statistically significant compared with those of the "first", "second" and "third", and exceeds that of the "first" in more than one standard deviation, FIG. 15 and (Table IX). […]
# Swiss mice = assay: single-dose intraperitoneal toxicity in mice; conditions: i.p. single dose; 236 (Cl) 800 mcg/Kg, 278 (Ac) 4.2 mg/Kg, 320 (Ac) 4.8 mg/Kg, respectively
# human lymphocytes = assay: in vitro non-specific lymphoproliferative response (RLP-I) to PHA, human lymphocyte cultures; assay type: cell-based
# Procedure: The "in vitro" lymphocyte response has been assessed in samples of circulating and peripheral venous blood from asymptomatic blood donor adults of both sexes. In general, the lymphocyte cultures include in each case six experimental models called witnesses, and incorporate progressive doses between 0.25-6.0 units (20-500 ng) of the BRM-BLAS compounds and PHA. The RLP-I of each one has been morphologically determined and is expressed in absolute values of lymphoblasts/10,000.
# Systematically, in all the cases it has been tabulated the RLP-I to the PHA, basal, of the PHA models; to the PHA+BRM-BLAS, of the "witness" models and the maximum individual response of the witness models (RMC), in each case.
# [2] = system: circulating peripheral blood lymphocytes; assay: in vivo lymphocyte kinetics / response in asymptomatic rabbits; design: species or system New Zealand's albino, giant rabbits
# From the text: as §1
# Hereinafter, there is a summary of the most significant results of the preclinical protocols which include different experimental conditions, different BRM-BLAS products and doses which vary in vary of their concentration of the product, frequency and number. […]
# This study comprises three concatenated experimental situations. The first one is focused on the vicissitudes of the leuko-lymphocyte kinetics occurred during a pause, "first" moment, that takes place months after several doses, mainly of BRM-BLAS 236 (Cl) compounds and includes 30 individual assessments (6 of the group) days 0 to 39. The second "second" moment, is centered on the successive changes occurred after the administration on the 39th day of an intravenous dose of 8 u/Kg (0.6 mcg/Kg) of the BRM-BLAS 278 (Ac) compounds and includes a total of 25 individual assessments (5 of the group), days 43rd to 68th. The third one, moments "third" to "seventh", analyzes the changes induced after the intravenous administration on the 68th day of 22 u/Kg (1.8 mcg/Kg) of BRM-BLAS 320 (Ac) compounds and includes […] (6 of the group×5 times), days 75th to 287th of the study. The assessment prior to the last dose, the lymphocyte average of which is the lowest of the group during the study, has been selected as the common baseline (100%) for reference of the comparative analysis between the assessments.
# patients with cancer = conditions: patients with favourable prognosis factors; cited from earlier work
# [3] = Table V, PHA + BRM-BLAS (B) versus PHA (A)
# [4] = Table VI, intragroup individual analysis
# [5] = progressive i.v. doses, "second" moment
# [6] = progressive i.v. doses, grouped results
# [7] = single i.v. high dose 22 u/Kg (1.8 mcg/Kg)
compound,measurement,setting,value
"CC(=O)NC1(C[n+]2ccccc2)CC(C(=O)O)N(C(C)=O)C1=O (centres unmarked) [BRM-BLAS 320 (Ac), 1-acetyl-4-acetylamino-4-(1-pyridiniomethyl) pyroglutamic acid acetate]","animals with leukocyte mean at ""fourth"" exceeding ""first"" moment by two or three standard deviations",[1],40%
same,assessments with leukocyte mean exceeding basal by one standard deviation,[1],4.4%
same,leukocyte punctual assessments versus basal,[1],the difference is never became statistically significant
same,"leukocyte mean versus basal, 227th day",[1]; 227th day,129%
same,"leukocyte mean versus basal, 241st day",[1]; 241st day,136%
same,"tolerance / toxicity, single dose",Swiss mice,perfectly tolerated without evidences of toxicity
same,"RLP-I B < A, number of witness models",human lymphocytes; [3],17 Num.
same,"RLP-I B < A, percentage of witness models",human lymphocytes; [3],21%
same,"RLP-I B > A, number of witness models",human lymphocytes; [3],65 Num.
same,"RLP-I B > A, percentage of witness models",human lymphocytes; [3],70%
same,number of cases with RLP-I B > A in 33-50% of the witness models,human lymphocytes; [4],14 Num.
same,number of cases with RLP-I B > A in 67% of the witness models,human lymphocytes; [4],9 Num.
same,number of cases with RLP-I B > A in 100% of the witness models,human lymphocytes; [4],5 Num.
same,percentage of cases with RLP-I B > A in 33-50% of the witness models,human lymphocytes; [4],100%
same,percentage of cases with RLP-I B > A in 67% of the witness models,human lymphocytes; [4],64%
same,percentage of cases with RLP-I B > A in 100% of the witness models,human lymphocytes; [4],36%
same,"animals with individual lymphocyte mean ""fourth"" versus ""first"" moment higher by three standard deviations",[2]; progressive i.v. doses,60%
same,"animals with individual lymphocyte mean ""fourth"" versus ""first"" moment higher by two standard deviations",[2]; progressive i.v. doses,40%
same,lymphocyte response,[2]; progressive i.v. doses 5-30 units/Kg (0.4-2.4 mcg/Kg),selective and significant increase in the number of lymphocytes that starts after the third dose and reaches its maximum level after the sixth
same,"assessments with lymphocyte mean exceeding one standard deviation, ""second"" moment",[2]; [5],41%
same,"assessments with statistically significant lymphocyte difference, ""second"" moment",[2]; [5],43%
same,highest average lymphocyte value versus basal,"[2]; progressive i.v. doses, day 241st of the study, ""fourth"" moment",178%
same,"assessments exceeding mean lymphocyte basal values by more than one, two or three standard deviations, ""third"" moment","[2]; progressive i.v. doses, days 153rd to 213th",80%
same,"assessments exceeding mean lymphocyte basal values by more than one, two or three standard deviations, ""fourth"" moment","[2]; progressive i.v. doses, days 220th to 282nd",100%
same,"grouped lymphocyte mean versus baseline, ""first"" period",[2]; [6],110%
same,"grouped lymphocyte mean versus baseline, ""fourth"" period",[2]; [6],152%
same,"grouped lymphocyte mean versus baseline, ""second"" period",[2]; [6],120%
same,"grouped lymphocyte mean versus baseline, ""third"" period",[2]; [6],131%
same,"cases with individual lymphocyte mean at ""seventh"" exceeding ""first"" moment by one, two or three standard deviations",[2]; single i.v. high dose 22 u/Kg,80%
same,lymphocyte mean versus baseline from the 53rd day,[2]; [7],surpasses the baseline by two or three standard deviations from the 53rd day
same,onset of lymphocyte increase after the dose,[2]; [7],twenty days after the high dose
same,highest lymphocyte mean versus basal,"[2]; single i.v. high dose 22 u/Kg (1.8 mcg/Kg), 88th and 202nd days after dose",212%
same,duration of statistically significant lymphocyte increase,"[2]; single i.v. high dose 22 u/Kg (1.8 mcg/Kg), from 53rd day","statistically significant uninterruptedly, until the 213th day"
same,selectivity for lymphocytes versus granulocytes and monocytes,"[2]; single i.v. high dose 22 u/Kg, FIG. 18 and FIG. 19",sustained and selective immunomodulating activity or effect of the BRM-BLAS 320 (Ac) compounds on subpopulations of lymphocytes without detriment to the number of granulocytes and monocytes
IFN-α,effect on tumor metastases,patients with cancer,can cause the regression of tumor metastases
